PubChem BioAssay (NCI)
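In this assay, cells in 96-well plates receive the compound at five concentrations for 48 hours. Endpoints are linearly interpolated between the surrounding concentrations. GI50 is the concentration that inhibits growth by half. TGI: concentration producing complete growth inhibition.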

Legend:
Test in all cases: inhibition of tumour cell growth, NCI panel, 48 h
NCI-H226 lung = test system: NCI-H226 lung
NCI-H23 lung = test system: NCI-H23 lung
NCI-H460 lung = test system: NCI-H460 lung
NCI-H522 lung = test system: NCI-H522 lung
NCI/ADR-RES ovarian = test system: NCI/ADR-RES ovarian
OVCAR-3 ovarian = test system: OVCAR-3 ovarian
OVCAR-4 ovarian = test system: OVCAR-4 ovarian
OVCAR-5 ovarian = test system: OVCAR-5 ovarian
OVCAR-8 ovarian = test system: OVCAR-8 ovarian
PC-3 prostate = test system: PC-3 prostate
RPMI-8226 leukemia = test system: RPMI-8226 leukemia
SF-268 CNS = test system: SF-268 CNS
SF-295 CNS = test system: SF-295 CNS
SF-539 CNS = test system: SF-539 CNS
SK-MEL-28 melanoma = test system: SK-MEL-28 melanoma
SK-MEL-5 melanoma = test system: SK-MEL-5 melanoma
SK-OV-3 ovarian = test system: SK-OV-3 ovarian
SN12C renal = test system: SN12C renal
SNB-19 CNS = test system: SNB-19 CNS
SNB-75 CNS = test system: SNB-75 CNS
SR leukemia = test system: SR leukemia
SW-620 colon = test system: SW-620 colon
T-47D breast = test system: T-47D breast
TK-10 renal = test system: TK-10 renal
U251 CNS = test system: U251 CNS
UACC-257 melanoma = test system: UACC-257 melanoma
UACC-62 melanoma = test system: UACC-62 melanoma
UO-31 renal = test system: UO-31 renal

COC(=O)c1ccc(NC(=O)Nc2ccc3oc(=O)c4ccccc4c3c2)cc1
TGI (NCI-H226 lung): > 100 µM | GI50 (NCI-H23 lung): 71.4 µM | TGI (NCI-H23 lung): > 100 µM | GI50 (NCI-H460 lung): 41.6 µM | TGI (NCI-H460 lung): > 100 µM | GI50 (NCI-H522 lung): 27.8 µM | TGI (NCI-H522 lung): > 100 µM | GI50 (NCI/ADR-RES ovarian): 41.7 µM | TGI (NCI/ADR-RES ovarian): > 100 µM | GI50 (OVCAR-3 ovarian): 29.5 µM | TGI (OVCAR-3 ovarian): 54.6 µM | GI50 (OVCAR-4 ovarian): 33.5 µM | TGI (OVCAR-4 ovarian): > 100 µM | GI50 (OVCAR-5 ovarian): 97.7 µM | TGI (OVCAR-5 ovarian): > 100 µM | GI50 (OVCAR-8 ovarian): 36.6 µM | TGI (OVCAR-8 ovarian): > 100 µM | GI50 (PC-3 prostate): 36.2 µM | TGI (PC-3 prostate): > 100 µM | GI50 (RPMI-8226 leukemia): 20.3 µM | TGI (RPMI-8226 leukemia): > 100 µM | GI50 (SF-268 CNS): 26.2 µM | TGI (SF-268 CNS): 71.2 µM | GI50 (SF-295 CNS): 55.9 µM | TGI (SF-295 CNS): > 100 µM | GI50 (SF-539 CNS): 62.5 µM | TGI (SF-539 CNS): > 100 µM | GI50 (SK-MEL-28 melanoma): 76 µM | TGI (SK-MEL-28 melanoma): > 100 µM | GI50 (SK-MEL-5 melanoma): 5.21 µM | TGI (SK-MEL-5 melanoma): 17.3 µM | GI50 (SK-OV-3 ovarian): 40.3 µM | TGI (SK-OV-3 ovarian): > 100 µM | GI50 (SN12C renal): 44.5 µM | TGI (SN12C renal): > 100 µM | GI50 (SNB-19 CNS): 33 µM | TGI (SNB-19 CNS): 89.8 µM | GI50 (SNB-75 CNS): 32 µM | TGI (SNB-75 CNS): 96.2 µM | GI50 (SR leukemia): 10.9 µM | TGI (SR leukemia): > 100 µM | GI50 (SW-620 colon): 30.9 µM | TGI (SW-620 colon): 98.3 µM | GI50 (T-47D breast): > 100 µM | TGI (T-47D breast): > 100 µM | GI50 (TK-10 renal): > 100 µM | TGI (TK-10 renal): > 100 µM | GI50 (U251 CNS): 30.9 µM | TGI (U251 CNS): > 100 µM | GI50 (UACC-257 melanoma): 60.7 µM | TGI (UACC-257 melanoma): > 100 µM | GI50 (UACC-62 melanoma): 82.2 µM | TGI (UACC-62 melanoma): > 100 µM | GI50 (UO-31 renal): 62.5 µM | TGI (UO-31 renal): > 100 µM
